# Tests used:
# [1] = test system: cyclamen (cultivar: Dressy Scarlet) seedling; test: Growth of root tubers at cut root ends of seedlings in solid media; format: in vivo
# Method: A cyclamen (cultivar: Dressy Scarlet) seed was immersed in an ethyl alcohol aqueous solution having an ethyl alcohol concentration of 70 wt % for 10 seconds and in a sodium hypochlorite solution having an effective chlorine concentration of 1 wt % for 10 minutes to sterilize the surface of the seed. Thereafter, this seed was washed in sterilized water 3 times to remove the sodium hypochlorite from the surface of the seed. This was sown in an MS solid medium containing 30 g/l of sucrose and 6 g/l of agar under a germ-free condition and cultured at a temperature of 20° C. under weak light for 30 days to be germinated and rooted.
# The end portions of the roots of the above germinated and rooted cyclamen seedling were cut off with a scalpel, and the seedling was planted in the following solid media. As the media, a large number of experimental plots were prepared by adding NAA and BA as phytohormones to the ⅓ MS medium in concentrations shown in Tables 1 to 3 and further adding 30 to 90 g/l of sucrose. 6 g/l of agar was added to all of the media which were then sterilized in an autoclave to prepare media having a pH of 7.0. 10 ml of each of the solid media was placed in a 50 ml culture test tube. The stationary culture of the seedling planted in each of the media was carried out at 20° C. under weak light for a certain number of days to grow root tubers at the end portions of its roots.
# [2] = test system: explants from leaves of cyclamen (species: Flamenco); test: Culture of explants from leaves (comparative); format: cell-based; details: NAA 0.05 mg/l, 20 explants planted, 30 days
# Method: For comparison, the explants from leaves and petioles of cyclamen (species: Flamenco) were cultured for 30 days by changing the contents of BA and sucrose in a basal medium prepared by adding 0.05 mg/l of NAA and 6 g/l of agar to the ⅓ MS medium and having a pH of 7.0. In all the cases, the root tubers were hardly enlarged by culture and rarely regenerated and accordingly, a clonal plant could not be obtained with high reproducibility.
# [3] = sucrose 50 g/l, BA 10.0 mg/l, NAA 0.05 mg/l, 30-th day
# [4] = sucrose 70 g/l, BA 0.1 mg/l, NAA 0.01 mg/l, 30-th day
# [5] = sucrose 70 g/l, BA 0.1 mg/l, NAA 0.05 mg/l, 30-th day
# [6] = sucrose 70 g/l, BA 1.0 mg/l, NAA 0.00 mg/l, 30-th day
# [7] = sucrose 70 g/l, BA 1.0 mg/l, NAA 0.01 mg/l, 30-th day
# [8] = sucrose 70 g/l, BA 1.0 mg/l, NAA 0.05 mg/l, 30-th day
# [9] = sucrose 70 g/l, BA 10.0 mg/l, NAA 0.00 mg/l, 30-th day
# [10] = sucrose 70 g/l, BA 10.0 mg/l, NAA 0.01 mg/l, 30-th day
# [11] = sucrose 70 g/l, BA 10.0 mg/l, NAA 0.05 mg/l, 30-th day
compound,measurement,setting,value
"c1ccc(CNc2ncnc3[nH]cnc23)cc1 [BA, benzylaminopurine]",Number of large root tubers (diameter of 1 mm or more),[1]; [3],4
same,Total number of root tubers,[1]; [3],8
same,Number of large root tubers (diameter of 1 mm or more),[1]; [4],4
same,Total number of root tubers,[1]; [4],8
same,Average number of root tubers (per a seedling),[1]; [5],4.4
same,Number of large root tubers (diameter of 1 mm or more),[1]; [5],12
same,Total number of root tubers,[1]; [5],14
same,Average number of root tubers (per a seedling),"[1]; sucrose 70 g/l, BA 0.1 mg/l, NAA 0.05 mg/l, 50-th day",4.4
same,Number of large root tubers (diameter of 1 mm or more),[1]; [6],11
same,Total number of root tubers,[1]; [6],16
same,Number of large root tubers (diameter of 1 mm or more),[1]; [7],11
same,Total number of root tubers,[1]; [7],19
same,Average number of root tubers (per a seedling),[1]; [8],0.8
same,Number of large root tubers (diameter of 1 mm or more),[1]; [8],9
same,Total number of root tubers,[1]; [8],11
same,Average number of root tubers (per a seedling),"[1]; sucrose 70 g/l, BA 1.0 mg/l, NAA 0.05 mg/l, 50-th day",0.8
same,Average number of root tubers (per a seedling),"[1]; sucrose 70 g/l, BA 2.0 mg/l, NAA 0.05 mg/l, 30-th day",3.2
same,Average number of root tubers (per a seedling),"[1]; sucrose 70 g/l, BA 2.0 mg/l, NAA 0.05 mg/l, 50-th day",3.2
same,Average number of root tubers (per a seedling),"[1]; sucrose 70 g/l, BA 5.0 mg/l, NAA 0.05 mg/l, 30-th day",1.0
same,Average number of root tubers (per a seedling),"[1]; sucrose 70 g/l, BA 5.0 mg/l, NAA 0.05 mg/l, 50-th day",1.0
same,Number of large root tubers (diameter of 1 mm or more),[1]; [9],3
same,Total number of root tubers,[1]; [9],3
same,Number of large root tubers (diameter of 1 mm or more),[1]; [10],3
same,Total number of root tubers,[1]; [10],3
same,Number of large root tubers (diameter of 1 mm or more),[1]; [11],8
same,Total number of root tubers,[1]; [11],14
same,Average number of root tubers (per a seedling),"[1]; sucrose 90 g/l, BA 0.1 mg/l, NAA 0.05 mg/l, 30-th day",2.4
same,Average number of root tubers (per a seedling),"[1]; sucrose 90 g/l, BA 0.1 mg/l, NAA 0.05 mg/l, 50-th day",2.4
same,Average number of root tubers (per a seedling),"[1]; sucrose 90 g/l, BA 1.0 mg/l, NAA 0.05 mg/l, 30-th day",1.6
same,Average number of root tubers (per a seedling),"[1]; sucrose 90 g/l, BA 1.0 mg/l, NAA 0.05 mg/l, 50-th day",1.6
same,Average number of root tubers (per a seedling),"[1]; sucrose 90 g/l, BA 2.0 mg/l, NAA 0.05 mg/l, 30-th day",1.0
same,Average number of root tubers (per a seedling),"[1]; sucrose 90 g/l, BA 2.0 mg/l, NAA 0.05 mg/l, 50-th day",1.0
same,Average number of root tubers (per a seedling),"[1]; sucrose 90 g/l, BA 5.0 mg/l, NAA 0.05 mg/l, 30-th day",0.8
same,Average number of root tubers (per a seedling),"[1]; sucrose 90 g/l, BA 5.0 mg/l, NAA 0.05 mg/l, 50-th day",0.8
same,Number of enlarged explants,[2]; BA 0.05 mg/l,0
same,Number of regenerate explants,[2]; BA 0.05 mg/l,0
same,Number of enlarged explants,"[2]; BA 0.05 mg/l, sucrose 30 g/m",1
same,Number of regenerate explants,"[2]; BA 0.05 mg/l, sucrose 30 g/m",0
same,Number of enlarged explants,"[2]; BA 0.05 mg/l, sucrose 70 g/m",0
same,Number of regenerate explants,"[2]; BA 0.05 mg/l, sucrose 70 g/m",0
same,Number of enlarged explants,"[2]; BA 0.05 mg/l, sucrose 90 g/m",0
same,Number of regenerate explants,"[2]; BA 0.05 mg/l, sucrose 90 g/m",0
same,Number of enlarged explants,[2]; BA 0.1 mg/l,1
same,Number of regenerate explants,[2]; BA 0.1 mg/l,0
same,Number of enlarged explants,"[2]; BA 0.1 mg/l, sucrose 30 g/m",2
same,Number of regenerate explants,"[2]; BA 0.1 mg/l, sucrose 30 g/m",1
same,Number of enlarged explants,"[2]; BA 0.1 mg/l, sucrose 70 g/m",0
same,Number of regenerate explants,"[2]; BA 0.1 mg/l, sucrose 70 g/m",0
same,Number of enlarged explants,"[2]; BA 0.1 mg/l, sucrose 90 g/m",0
same,Number of regenerate explants,"[2]; BA 0.1 mg/l, sucrose 90 g/m",0
same,Number of enlarged explants,[2]; BA 0.5 mg/l,4
same,Number of regenerate explants,[2]; BA 0.5 mg/l,1
same,Number of enlarged explants,"[2]; BA 0.5 mg/l, sucrose 30 g/m",2
same,Number of regenerate explants,"[2]; BA 0.5 mg/l, sucrose 30 g/m",2
same,Number of enlarged explants,"[2]; BA 0.5 mg/l, sucrose 70 g/m",1
same,Number of regenerate explants,"[2]; BA 0.5 mg/l, sucrose 70 g/m",0
same,Number of enlarged explants,"[2]; BA 0.5 mg/l, sucrose 90 g/m",2
same,Number of regenerate explants,"[2]; BA 0.5 mg/l, sucrose 90 g/m",0
same,Number of enlarged explants,[2]; BA 1 mg/l,4
same,Number of regenerate explants,[2]; BA 1 mg/l,2
same,Number of enlarged explants,"[2]; BA 1 mg/l, sucrose 30 g/m",6
same,Number of regenerate explants,"[2]; BA 1 mg/l, sucrose 30 g/m",3
same,Number of enlarged explants,"[2]; BA 1 mg/l, sucrose 70 g/m",3
same,Number of regenerate explants,"[2]; BA 1 mg/l, sucrose 70 g/m",1
same,Number of enlarged explants,"[2]; BA 1 mg/l, sucrose 90 g/m",5
same,Number of regenerate explants,"[2]; BA 1 mg/l, sucrose 90 g/m",1

# — patent US20050229276A1, “Method of producing cyclamen root tuber and method of proliferating cyclamen using the same” (Tokyo University of Agricultural, priority 2002, published 2005)
